Source: patent publication US20250250269A1, “HETEROCYCLIC GLP-1 AGONISTS” (Gasherbrum Bio, Inc., priority 2022, published 2025)

Biological target: T1, GLP-1 Receptor (Homo sapiens, UniProt P43220)
T1 construct: host or cells: HEK293/CRE-Luc (HEK293/GLP1R/CRE-LUC)
Assay: GLP-1R agonist cAMP stimulation assay (HEK293/GLP1R/CRE-LUC cells, Cisbio cAMP dynamic 2 kit)
Assay type: cell-based
Details: HEK293/CRE-Luc cells stably expressing the GLP-1 Receptor, 30 min at 37° C.
Experimental: Activation of GLP-1 receptor is known to stimulate cyclic AMP (cAMP) production in cells which indicates primary coupling to the Gas subunit of the G protein heterotrimeric complex.
To optimize functional activity directed toward Gas coupling, a HEK293/CRE-Luc cell line developed by HDB stably expressing the GLP-1 Receptor was used. 200× concentration of compound working solutions were prepared (Agilent Technologies Bravo) with ½ log serial dilution in 384-well Echo LDV plate (Labcyte, Cat #LP-0200). […] 200× concentration of compound working solutions were moved to 384-well white low volume plate (Greiner, Cat #784075) using Labcyte ECHO550. 1×10^5 cells/mL HEK293/GLP1R/CRE-LUC (HD Biosciences) cell suspensions prepared with assay buffer [DPBS containing 0.5 mM IBMX (Sigma, Cat #15879) and 0.1% BSA (GENVIEW, Cat #FA016-100g)], 10 μL cell suspensions were added to each well of previous generated assay plate which already contains […] compound at 200×concentration using ThermoFisher Multidrop Combi (1000 cells/well). Seal the plate and incubate at 37° C. with 5% CO2 for 30 min.
After incubation the cAMP assay signal was generated using cAMP dynamic 2 Kit (Cisbio). 5 μL cAMP-d2 working solution was added to each well, followed with 5 μL Anti-cAMP antibody-cryptate working solution added to each well using ThermoFisher Multidrop Combi. Incubate at room temperature for 1 hour protected from light. Read the fluorescence at 665 and 615 nm with Reader PerkinElmer EnVision.

T1 sequence (P43220 24-463, species assumed): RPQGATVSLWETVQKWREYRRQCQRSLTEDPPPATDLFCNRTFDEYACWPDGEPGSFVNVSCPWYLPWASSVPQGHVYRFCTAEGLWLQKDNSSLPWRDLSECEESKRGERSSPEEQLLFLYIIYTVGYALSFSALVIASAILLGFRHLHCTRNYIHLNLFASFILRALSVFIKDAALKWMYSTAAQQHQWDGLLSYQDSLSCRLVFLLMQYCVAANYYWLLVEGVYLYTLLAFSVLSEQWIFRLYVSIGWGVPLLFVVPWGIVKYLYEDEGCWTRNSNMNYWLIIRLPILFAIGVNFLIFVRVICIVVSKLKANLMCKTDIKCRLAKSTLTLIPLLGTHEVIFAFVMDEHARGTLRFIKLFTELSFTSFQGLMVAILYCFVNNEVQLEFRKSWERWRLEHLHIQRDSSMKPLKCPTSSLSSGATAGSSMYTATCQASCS

SMILES | EC50 [nM]
Cc1ccc(C2(C)Oc3cccc(C4CCN(Cc5nc6cc(-c7nnc(C(F)(F)F)[nH]7)cnc6n5C[C@@H]5CCO5)CC4)c3O2)cn1 (stereo partly drawn) [Compound 56, 2-methyl-5-[2-methyl-4-{1-[(3-{[(2S)-oxetan-2-yl]methyl}-6-[5-(trifluoromethyl)-4H-1,2,4-triazol-3-yl]-3H-imidazo[4,5-b]pyridin-2-yl)methyl]piperidin-4-yl}-2H-1,3-benzodioxol-2-yl]pyridine] | < 1
C[C@]1(c2ccc(Cl)cn2)Oc2cccc([C@H]3CCN(Cc4nc5cc(-c6nnc(C(F)(F)F)[nH]6)cnc5n4C[C@@H]4CCO4)C[C@@H]3F)c2O1 (single isomer, unassigned) [Compound 60] | < 1
C[C@]1(c2ccc(Cl)cc2F)Oc2cccc(C3=CCN(Cc4nc5cc(-c6nnc(C(F)(F)F)[nH]6)ncc5n4C[C@@H]4CCO4)CC3)c2O1 [Compound 44, 2-((4-((S)-2-(4-chloro-2-fluorophenyl)-2-methylbenzo[d][1,3]dioxol-4-yl)-3,6-dihydropyridin-1(2H)-yl)methyl)-3-(((S)-oxetan-2-yl)methyl)-6-(5-(trifluoromethyl)-4H-1,2,4-triazol-3-yl)-3H-imidazo[4,5-c]pyridine] | < 1
O=c1[nH]c(-c2cc(F)c3c(c2)nc(CN2CCC(c4cccc(OCc5ccc(Cl)cc5F)n4)CC2)n3C[C@@H]2CCO2)no1 [Compound 38, (S)-3-(2-((4-(6-((4-chloro-2-fluorobenzyl)oxy)pyridin-2-yl)piperidin-1-yl)methyl)-7-fluoro-1-(oxetan-2-ylmethyl)-1H-benzo[d]imidazol-5-yl)-1,2,4-oxadiazol-5(4H)-one] | 1 to 100
Fc1cc(Cl)ccc1COc1cccc([C@@H]2CCN(Cc3nc4cc(-c5nnc(C(F)(F)F)[nH]5)ncc4n3C[C@@H]3CCO3)C[C@H]2F)n1 (single isomer, unassigned) [Compound 59] | < 1
C[C@]1(c2ccc(Cl)cc2F)Oc2cccc(C3CCN(Cc4nc5cc(C(=O)NCC(F)(F)F)ncc5n4C[C@@H]4CCO4)CC3)c2O1 [Compound 25, 2-((4-((S)-2-(4-chloro-2-fluorophenyl)-2-methylbenzo[d][1,3]dioxol-4-yl)piperidin-1-yl)methyl)-3-(((S)-oxetan-2-yl)methyl)-N-(2,2,2-trifluoroethyl)-3H-imidazo[4,5-c]pyridine-6-carboxamide] | < 1
Cc1ccc(COc2cccc(C3CCN(Cc4nc5cc(-c6nnc(C(F)(F)F)[nH]6)ncc5n4C[C@@H]4CCO4)CC3)n2)nn1 [Compound 21, 3-methyl-6-{[(6-{1-[(3-{[(2S)-oxetan-2-yl]methyl}-6-[5-(trifluoromethyl)-4H-1,2,4-triazol-3-yl]-3H-imidazo[4,5-c]pyridin-2-yl)methyl]piperidin-4-yl}pyridin-2-yl)oxy]methyl}pyridazine] | < 1
Cc1ccc(C2(C)Oc3cccc(C4CCN(Cc5nc6cc(-c7nnc(C(F)(F)F)[nH]7)ncc6n5C[C@@H]5CCO5)CC4)c3O2)cn1 (stereo partly drawn) [Compound 55, 2-methyl-5-[2-methyl-4-{1-[(3-{[(2S)-oxetan-2-yl]methyl}-6-[5-(trifluoromethyl)-4H-1,2,4-triazol-3-yl]-3H-imidazo[4,5-c]pyridin-2-yl)methyl]piperidin-4-yl}-2H-1,3-benzodioxol-2-yl]pyridine] | < 1
COc1cc(Cl)ccc1COc1cc(C2=CCN(Cc3nc4cc(-c5nnc(C(F)(F)F)[nH]5)ncc4n3C[C@@H]3CCO3)CC2)ccc1F [Compound 31, (S)-2-((4-(3-((4-chloro-2-methoxybenzyl)oxy)-4-fluorophenyl)-3,6-dihydropyridin-1(2H)-yl)methyl)-3-(oxetan-2-ylmethyl)-6-(5-(trifluoromethyl)-4H-1,2,4-triazol-3-yl)-3H-imidazo[4,5-c]pyridine] | < 1
Fc1cc(Cl)cc(F)c1COc1cccc(C2CCN(Cc3nc4cc(-c5nnc(C(F)(F)F)[nH]5)ncc4n3C[C@@H]3CCO3)CC2)n1 [Compound 6, (S)-2-((4-(6-((4-chloro-2,6-difluorobenzyl)oxy)pyridin-2-yl)piperidin-1-yl)methyl)-3-(oxetan-2-ylmethyl)-6-(5-(trifluoromethyl)-4H-1,2,4-triazol-3-yl)-3H-imidazo[4,5-c]pyridine] | < 1
Cc1nnc(-c2cc(F)c3c(c2)nc(CN2CCC(c4cccc5c4O[C@@](C)(c4ccc(Cl)cc4F)O5)CC2)n3C[C@@H]2CCO2)[nH]1 [Compound 41, 2-((4-((S)-2-(4-chloro-2-fluorophenyl)-2-methylbenzo[d][1,3]dioxol-4-yl)piperidin-1-yl)methyl)-7-fluoro-5-(5-methyl-4H-1,2,4-triazol-3-yl)-1-(((S)-oxetan-2-yl)methyl)-1H-benzo[d]imidazole] | < 1
NC(=O)c1nnc(-c2cc3nc(CN4CC=C(c5ccc(F)c(OCc6ccc(Cl)cc6F)c5)CC4)n(C[C@@H]4CCO4)c3cn2)[nH]1 [Compound 32, (S)-5-(2-((4-(3-((4-chloro-2-fluorobenzyl)oxy)-4-fluorophenyl)-3,6-dihydropyridin-1(2H)-yl)methyl)-3-(oxetan-2-ylmethyl)-3H-imidazo[4,5-c]pyridin-6-yl)-4H-1,2,4-triazole-3-carboxamide] | < 1
N#Cc1nnc(-c2cc3nc(CN4CC=C(c5ccc(F)c(OCc6ccc(Cl)cc6F)c5)CC4)n(C[C@@H]4CCO4)c3cn2)[nH]1 [Compound 33, (S)-5-(2-((4-(3-((4-chloro-2-fluorobenzyl)oxy)-4-fluorophenyl)-3,6-dihydropyridin-1(2H)-yl)methyl)-3-(oxetan-2-ylmethyl)-3H-imidazo[4,5-c]pyridin-6-yl)-4H-1,2,4-triazole-3-carbonitrile] | < 1
Fc1cc(Cl)ccc1COc1cccc([C@H]2CCN(Cc3nc4cc(-c5nnc(C(F)(F)F)[nH]5)ncc4n3C[C@@H]3CCO3)C[C@@H]2F)n1 (single isomer, unassigned) [Compound 58] | < 1
COc1cc(Cl)ccc1COc1cccc(C2CCN(Cc3nc4cc(-c5nnc(C(F)(F)F)[nH]5)ncc4n3C[C@@H]3CCO3)CC2)n1 [Compound 2, (S)-2-((4-(6-((4-chloro-2-methoxybenzyl)oxy)pyridin-2-yl)piperidin-1-yl)methyl)-3-(oxetan-2-ylmethyl)-6-(5-(trifluoromethyl)-4H-1,2,4-triazol-3-yl)-3H-imidazo[4,5-c]pyridine] | < 1
[2H]C1([2H])Oc2cccc(COc3cccc(C4CCN(Cc5nc6cc(-c7nnc(C(F)(F)F)[nH]7)ncc6n5C[C@@H]5CCO5)CC4)n3)c2O1 [Compound 19, (S)-2-((4-(6-((benzo[d][1,3]dioxol-4-yl-2,2-d2)methoxy)pyridin-2-yl)piperidin-1-yl)methyl)-3-(oxetan-2-ylmethyl)-6-(5-(trifluoromethyl)-4H-1,2,4-triazol-3-yl)-3H-imidazo[4,5-c]pyridine] | < 1
FC1(F)Oc2cccc(COc3cccc(C4CCN(Cc5nc6cc(-c7nnc(C(F)(F)F)[nH]7)ncc6n5C[C@@H]5CCO5)CC4)n3)c2O1 [Compound 18, (S)-2-((4-(6-((2,2-difluorobenzo[d][1,3]dioxol-4-yl)methoxy)pyridin-2-yl)piperidin-1-yl)methyl)-3-(oxetan-2-ylmethyl)-6-(5-(trifluoromethyl)-4H-1,2,4-triazol-3-yl)-3H-imidazo[4,5-c]pyridine] | < 1
C[C@]1(c2ccc(Cl)cn2)Oc2cccc([C@@H]3CCN(Cc4nc5cc(-c6nnc(C(F)(F)F)[nH]6)cnc5n4C[C@@H]4CCO4)C[C@H]3F)c2O1 (single isomer, unassigned) [Compound 61] | < 1
